Data published in US20040142979A1, “Heteroarylsulfonylmethyl hydroxamic acids and amides and their use as protease inhibitors” (priority 2002, published 2004).

How the values were obtained:
[1] = system: advanced, rapidly progressive, treatment-refractory solid tumor cancers (colorectal, pancreatic, ovarian, and prostate); settings: cited from earlier work
[2] = target: T1, Human recombinant MMP-1 (Homo sapiens, UniProt P03956); assay: In vitro MMP inhibition analysis (fluorogenic peptide substrate), MMP-1; assay type: biochemical; settings: human recombinant enzyme; 4 μM substrate (A); apparent Ki without substrate correction
T1 construct: made in house; host or cells: MMP-1-transfected HT-1080 cells (spent media)
T1 sequence (P03956 100-469): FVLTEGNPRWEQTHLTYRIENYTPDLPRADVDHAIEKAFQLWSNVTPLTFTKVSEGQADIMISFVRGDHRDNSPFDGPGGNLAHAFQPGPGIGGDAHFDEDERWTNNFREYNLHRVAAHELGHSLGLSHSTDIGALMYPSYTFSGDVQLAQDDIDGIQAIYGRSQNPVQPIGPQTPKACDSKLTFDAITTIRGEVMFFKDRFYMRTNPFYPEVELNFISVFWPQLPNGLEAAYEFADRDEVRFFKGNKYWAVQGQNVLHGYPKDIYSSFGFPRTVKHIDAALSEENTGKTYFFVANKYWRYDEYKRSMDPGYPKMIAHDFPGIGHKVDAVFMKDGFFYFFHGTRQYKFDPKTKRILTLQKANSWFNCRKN
Protocol: (§1) Several compounds and salts were analyzed in an in vitro assay to determine their ability to inhibit the MMP cleavage of peptide substrates. Inhibition constant (Ki) were calculated from the assayed compound-MMP interactions.
(§2) Human recombinant MMP-1, MMP-2, MMP-9, MMP-13, and MMP-14 were used in this assay. All enzymes were prepared in Assignee's laboratories following usual laboratory procedures. Protocols for the preparation and use of these enzymes are available in the scientific literature. See, e.g., Enzyme Nomenclature (Academic Press, San Diego, Calif., 1992) (and the citations therein). See also, Freije et al., J. Biol. Chem., 269(24), 16766-16773 (1994).
The MMP-1 proenzyme was purified from the spent media of MMP-1-transfected HT-1080 cells provided by Dr. Harold Welgus of Washington University (St. Louis, Mo.). The protein was purified on a zinc chelating column.
(§3) All MMPs were activated using 4-aminophenylmercuric acetate (“APMA”, Sigma Chemical, St. Louis, Mo.) or trypsin. MMP-9 also was activated using human recombinant MMP-3 (purified in Assignee's laboratory following standard cloning and purification techniques).
(§4) The following fluorogenic, methoxycoumarin-containing polypeptide substrate (A) was used in the MMP inhibition assays:
(§5) MCA-ArgProLeuGlyLeuDpaAlaArgGluArgNH2 (A)
(§6) “MCA” is 7-methoxycoumarin-4-yl acetyl. Substrate (A) was prepared Assignee's laboratory. In the absence of MMP inhibitory activity, the substrate is cleaved at the Gly-Leu peptide bond. This cleavage separates the highly fluorogenic peptide from the 2,4-dinitrophenyl quencher, thus resulting in increase of fluorescent intensity.
(§7) The stock solutions of the assayed compounds and salts were prepared in 1% dimethyl sulfoxide (DMSO). These stock solutions were diluted in Buffer A (100 mM Tris-HCl, 100 mM NaCl, 10 mM CaCl2, 0.05% polyoxyethylene 23 lauryl ether, pH 7.5) to obtain solutions with different compound concentrations, i.e., assay solutions with different concentrations of the assayed MMP inhibitory compound. The experiment controls contained the same amount of Buffer A/DMSO as the assayed sample, but contained none of the tested compound or salt.
(§8) The assays from which the Ki determinations were made were performed as follows. The assayed compound samples were incubated in separate wells of untreated white polystyrene plates (Nunc Nalgene International, Rochester, N.Y.), and analyzed on a Tecan SpectraFlour Plus plate reader. The excitation wavelength was 330 nm, and the emission wavelength -420 nm. All samples (assayed compounds and controls) were incubated in separate plate wells at room temperature for 1 hr in the presence of 4 μM of MMP substrate (A). In the absence of MMP inhibitory activity, substrate (A) was cleaved at the Gly-Leu bond resulting in an increase of relative fluorescence. Inhibition was observed as a reduced rate of this increase in relative fluorescence. […] This protocol is a modification of method by Knight et al., FEBS Lett., 296(3), 263-266 (1992). Apparent inhibitory constants were determined by non-linear regression of reaction velocity as a function of inhibitor and enzyme concentration using Morrison's equation, as described by Kuzmic, P., et al., Anal. Biochem., 286(1):45-50 (2000). Modifications were made in the non-linear regression method to allow a common control reaction rate and effective enzyme concentration to be shared between all dose-response relationships on a given assay plate. Since the substrate concentration was chosen to be at or below the Km, the apparent Ki's from this analysis were reported as Ki's without correction for the influence of substrate.
(§9) The above protocols were used to determine MMP inhibition Ki constants for the compounds in Examples 1, 2, and 4-42 above. All Ki values in Table 3 are given in nM units.

[3] = target: T2, Human recombinant MMP-14 (Homo sapiens, UniProt P50281); assay: In vitro MMP inhibition analysis (fluorogenic peptide substrate), MMP-14; assay type: biochemical; settings: human recombinant catalytic domain; 4 μM substrate (A); apparent Ki without substrate correction
T2 construct: The catalytic domain enzyme was expressed in E. Coli inclusion bodies; made in house
Protocol: as §1, §2
The MMP-14 full length cDNA was provided by Dr. Gregory Goldberg of Washington University (St. Louis, Mo.). The catalytic domain enzyme was expressed in E. Coli inclusion bodies, solubilized in urea, purified on a preparative […] reverse phase HPLC column, and then refolded in the presence of zinc acetate and purified for use.
as §3, §4, §5, §6, §7, §8, §9

[4] = target: T3, Human recombinant MMP-2 (Homo sapiens, UniProt P08253); assay: In vitro MMP inhibition analysis (fluorogenic peptide substrate), MMP-2; assay type: biochemical; settings: human recombinant enzyme; 4 μM substrate (A); apparent Ki without substrate correction
T3 construct: made in house; host or cells: MMP-2-transfected p2AHT2 cells
T3 sequence (P08253 110-660): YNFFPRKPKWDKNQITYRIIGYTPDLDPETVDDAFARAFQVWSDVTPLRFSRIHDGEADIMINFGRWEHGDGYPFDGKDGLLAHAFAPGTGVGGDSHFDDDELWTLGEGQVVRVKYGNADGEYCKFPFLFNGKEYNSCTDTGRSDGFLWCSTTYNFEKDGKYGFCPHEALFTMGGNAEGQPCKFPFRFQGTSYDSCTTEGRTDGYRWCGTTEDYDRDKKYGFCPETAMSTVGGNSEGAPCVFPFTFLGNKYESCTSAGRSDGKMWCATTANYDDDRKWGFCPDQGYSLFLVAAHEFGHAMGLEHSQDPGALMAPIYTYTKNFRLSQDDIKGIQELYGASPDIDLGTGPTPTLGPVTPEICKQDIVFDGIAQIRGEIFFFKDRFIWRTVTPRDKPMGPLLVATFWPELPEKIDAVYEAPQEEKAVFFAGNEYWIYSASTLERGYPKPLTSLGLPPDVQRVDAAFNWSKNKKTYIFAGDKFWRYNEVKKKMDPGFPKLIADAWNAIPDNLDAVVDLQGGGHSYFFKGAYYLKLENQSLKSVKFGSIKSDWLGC
Protocol: as §1, §2
The MMP-2 proenzyme was purified by gelatin Sepharose chromatography from MMP-2- transfected p2AHT2 cells provided by Dr. Gregory Goldberg of Washington University (St. Louis, Mo.).
as §3, §4, §5, §6, §7, §8, §9

[5] = target: T4, Human recombinant MMP-9 (Homo sapiens, UniProt P14780); assay: In vitro MMP inhibition analysis (fluorogenic peptide substrate), MMP-9; assay type: biochemical; settings: human recombinant enzyme; 4 μM substrate (A); apparent Ki without substrate correction
T4 construct: made in house; host or cells: MMP-9-transfected HT1080 cells (spent media)
Protocol: as §1, §2
The MMP-9 proenzyme was purified by gelatin Sepharose chromatography from spent media of MMP-9-transfected HT1080 cells provided by Dr. Howard Welgus of Washington University (St. Louis, Mo.).
as §3, §4, §5, §6, §7, §8, §9

T4 sequence (P14780 107-707 limits assumed): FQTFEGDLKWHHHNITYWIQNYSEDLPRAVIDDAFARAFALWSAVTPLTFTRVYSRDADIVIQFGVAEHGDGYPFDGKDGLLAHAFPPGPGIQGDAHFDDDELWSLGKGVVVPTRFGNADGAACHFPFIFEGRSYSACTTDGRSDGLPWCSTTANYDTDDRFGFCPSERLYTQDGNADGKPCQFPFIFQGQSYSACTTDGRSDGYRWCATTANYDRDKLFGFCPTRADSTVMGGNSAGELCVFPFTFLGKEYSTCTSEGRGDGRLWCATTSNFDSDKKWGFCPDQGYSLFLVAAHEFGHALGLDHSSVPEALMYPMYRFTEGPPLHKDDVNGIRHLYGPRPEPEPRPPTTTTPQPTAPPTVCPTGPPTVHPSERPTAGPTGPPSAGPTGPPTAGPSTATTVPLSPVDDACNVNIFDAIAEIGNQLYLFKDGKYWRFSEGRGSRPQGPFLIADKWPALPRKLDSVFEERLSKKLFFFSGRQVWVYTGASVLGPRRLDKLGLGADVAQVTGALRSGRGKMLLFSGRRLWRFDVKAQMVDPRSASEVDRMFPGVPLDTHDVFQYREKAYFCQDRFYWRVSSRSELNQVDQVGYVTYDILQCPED

Ki [2] [µM] | Ki [3] [µM] | Ki [4] [µM] | Ki [5] [µM] | SMILES | effect on cancer-specific antigens used as surrogate markers for biological activity ([1]; Phase I/II studies, patients with advanced solid tumor cancers) | most common drug-related toxicity ([1]; clinical trials, patients)
– | – | – | – | CNC(=O)[C@@H](NC(=O)[C@H](CC(C)C)[C@H](O)C(=O)NO)C(C)(C)C [Marimastat] | dose-related reduction in the rise of cancer-specific antigens | musculoskeletal pain and stiffness
> 10 | > 10 | 4.97 | > 10 | O=C(c1ccc(-c2ccc(S(=O)(=O)C3(C(=O)NO)CCOCC3)cn2)cc1)N1CCCCC1 [Example 77] | – | –
> 10 | > 10 | 1.76 | > 10 | O=C(c1ccc(-c2ccc(S(=O)(=O)C3(C(=O)NO)CCOCC3)cn2)cc1)N1CCOCC1 [Example 80] | – | –
